Assay results published in ChEMBL document CHEMBL5344441, “Discovery and Preclinical Pharmacology of NX-2127, an Orally Bioavailable Degrader of Bruton's Tyrosine Kinase with Immunomodulatory Activity for the Treatment of Patients with B Cell Malignancies” (J Med Chem, 2024).
The source made the active and inactive calls. The rule behind the calls is not given here.

Legend:
[1] = biological target: Protein cereblon/Tyrosine-protein kinase BTK (Homo sapiens, UniProt Q06187+Q96SW2); assay: PROTAC activity at CRBN/BTK in human TMD8 cells assessed as degradation of BTK protein incubated for 4 hrs by HTRF assay; format: cell-based
Chain of Protein cereblon/Tyrosine-protein kinase BTK (Q06187 whole entry): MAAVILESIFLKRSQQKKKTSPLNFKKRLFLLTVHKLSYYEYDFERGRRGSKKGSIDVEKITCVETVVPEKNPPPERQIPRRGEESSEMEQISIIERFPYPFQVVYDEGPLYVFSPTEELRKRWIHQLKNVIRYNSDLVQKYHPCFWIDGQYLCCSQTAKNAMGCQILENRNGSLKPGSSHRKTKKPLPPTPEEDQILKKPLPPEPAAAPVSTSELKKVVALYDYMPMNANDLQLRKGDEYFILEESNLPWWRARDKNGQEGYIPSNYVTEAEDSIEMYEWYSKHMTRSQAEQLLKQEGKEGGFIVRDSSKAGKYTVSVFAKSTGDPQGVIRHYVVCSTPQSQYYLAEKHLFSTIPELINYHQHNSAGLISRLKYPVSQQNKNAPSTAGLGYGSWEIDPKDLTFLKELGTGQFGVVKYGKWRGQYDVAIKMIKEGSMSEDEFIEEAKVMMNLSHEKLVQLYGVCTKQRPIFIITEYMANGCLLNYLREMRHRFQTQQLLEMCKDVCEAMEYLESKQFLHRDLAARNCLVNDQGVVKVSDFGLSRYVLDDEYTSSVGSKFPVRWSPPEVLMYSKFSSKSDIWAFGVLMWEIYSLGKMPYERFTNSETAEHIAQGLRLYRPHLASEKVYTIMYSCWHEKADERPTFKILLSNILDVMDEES
Chain of Protein cereblon/Tyrosine-protein kinase BTK (Q96SW2 whole entry): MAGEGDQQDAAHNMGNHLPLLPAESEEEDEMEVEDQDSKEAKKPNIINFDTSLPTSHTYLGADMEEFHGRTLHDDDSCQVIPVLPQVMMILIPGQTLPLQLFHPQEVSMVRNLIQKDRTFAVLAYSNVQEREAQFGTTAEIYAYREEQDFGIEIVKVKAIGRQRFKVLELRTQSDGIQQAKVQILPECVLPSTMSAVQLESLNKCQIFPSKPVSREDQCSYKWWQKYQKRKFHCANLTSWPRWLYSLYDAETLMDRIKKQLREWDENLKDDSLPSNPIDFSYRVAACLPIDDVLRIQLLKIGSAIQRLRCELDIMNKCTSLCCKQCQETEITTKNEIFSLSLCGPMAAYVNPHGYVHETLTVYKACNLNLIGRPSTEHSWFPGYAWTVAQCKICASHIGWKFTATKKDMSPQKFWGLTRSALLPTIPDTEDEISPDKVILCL

[2] = Apparent permeability across apical to basolateral side in human Caco-2 cells; format: ADME, cell-based
[3] = Plasma protein binding in mouse; format: ADME, cell-free; details: read-out: PPB
[4] = Plasma protein binding in dog; format: ADME, cell-free, Canis lupus familiaris; details: read-out: PPB (converted)
[5] = Plasma protein binding in cynomolgus monkey; format: ADME, cell-free, Macaca fascicularis; details: read-out: PPB (converted)
[6] = Plasma protein binding in human; format: ADME, cell-free; details: read-out: PPB (converted)
[7] = AUC in mouse at 10 mg/kg,po; format: ADME, organism-based; parameters: dose 10 mg/kg, route po; details: in vivo
[8] = Observed clearance in dog at 1 mg/kg,iv; format: ADME, organism-based, Canis lupus familiaris; details: in vivo
[9] = AUC in rat at 10 mg/kg,po; format: ADME, organism-based; parameters: dose 10 mg/kg, route po; details: in vivo
[10] = AUC in dog at 10 mg/kg,po; format: ADME, organism-based, Canis lupus familiaris; parameters: dose 10 mg/kg, route po; details: in vivo
[11] = AUC in cynomolgus monkey at 10 mg/kg,po; format: ADME, organism-based, Macaca fascicularis; parameters: dose 10 mg/kg, route po; details: in vivo
[12] = Cmax in mouse at 10 mg/kg,po; format: ADME, organism-based; parameters: dose 10 mg/kg, route po; details: in vivo
[13] = Cmax in rat at 10 mg/kg,po; format: ADME, organism-based; parameters: dose 10 mg/kg, route po; details: in vivo
[14] = Cmax in dog at 10 mg/kg,po; format: ADME, organism-based, Canis lupus familiaris; parameters: dose 10 mg/kg, route po; details: in vivo
[15] = Cmax in cynomolgus monkey at 10 mg/kg,po; format: ADME, organism-based, Macaca fascicularis; parameters: dose 10 mg/kg, route po; details: in vivo
[16] = Oral bioavailability in dog at 10 mg/kg; format: ADME, organism-based, Canis lupus familiaris; details: in vivo
[17] = biological target: T1, Protein cereblon/Tyrosine-protein kinase BTK (Mus musculus) (UniProt P35991+Q8C7D2); assay: In vivo protac activity at CRBN/BTK in mouse assessed as remaining BTK protein at 10 mg/kg,po administration measured after 24 hrs by flow cytomtery relative to control; format: functional, organism-based
T1 sequence (P35991 whole entry, looked up): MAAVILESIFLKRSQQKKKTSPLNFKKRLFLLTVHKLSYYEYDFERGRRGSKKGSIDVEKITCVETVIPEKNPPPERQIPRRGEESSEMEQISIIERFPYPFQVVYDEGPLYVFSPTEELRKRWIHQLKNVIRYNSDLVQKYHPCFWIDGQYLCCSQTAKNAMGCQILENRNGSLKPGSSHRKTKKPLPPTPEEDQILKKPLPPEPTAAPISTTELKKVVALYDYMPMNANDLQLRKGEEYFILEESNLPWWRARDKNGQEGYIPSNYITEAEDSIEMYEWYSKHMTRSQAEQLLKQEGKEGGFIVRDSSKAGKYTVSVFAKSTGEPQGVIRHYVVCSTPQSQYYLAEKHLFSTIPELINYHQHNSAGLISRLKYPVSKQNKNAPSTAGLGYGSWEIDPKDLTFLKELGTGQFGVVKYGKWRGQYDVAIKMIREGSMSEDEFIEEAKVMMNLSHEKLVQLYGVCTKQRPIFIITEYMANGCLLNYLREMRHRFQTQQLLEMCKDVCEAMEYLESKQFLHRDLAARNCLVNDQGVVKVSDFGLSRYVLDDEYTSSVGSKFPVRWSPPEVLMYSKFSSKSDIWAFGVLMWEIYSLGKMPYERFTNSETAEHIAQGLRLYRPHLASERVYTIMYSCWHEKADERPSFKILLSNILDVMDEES
T1 sequence (Q8C7D2 whole entry, looked up): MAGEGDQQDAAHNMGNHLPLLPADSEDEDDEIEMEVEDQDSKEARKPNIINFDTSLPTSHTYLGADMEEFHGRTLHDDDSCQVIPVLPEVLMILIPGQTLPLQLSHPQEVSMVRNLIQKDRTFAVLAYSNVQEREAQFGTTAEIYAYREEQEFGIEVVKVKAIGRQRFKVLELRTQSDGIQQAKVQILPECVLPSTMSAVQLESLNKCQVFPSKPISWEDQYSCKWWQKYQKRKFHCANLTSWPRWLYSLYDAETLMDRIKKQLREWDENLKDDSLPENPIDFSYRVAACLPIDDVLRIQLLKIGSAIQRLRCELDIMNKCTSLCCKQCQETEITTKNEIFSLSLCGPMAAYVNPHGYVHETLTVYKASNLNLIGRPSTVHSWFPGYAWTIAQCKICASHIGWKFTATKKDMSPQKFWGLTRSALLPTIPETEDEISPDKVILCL

[18] = biological target: Protein cereblon-BTK (Canis lupus familiaris) (UniProt A0A8I3NIQ5+A0A8I3P7Z3); assay: In vivo protac activity at CRBN/BTK in Beagle dog assessed as remaining BTK protein at 10 mg/kg,po administration measured after 24 hrs by flow cytomtery relative to control; format: functional, organism-based
[19] = Drug uptake in BALB/c mouse plasma at po administration; format: ADME, organism-based; details: in vivo
[20] = Drug uptake in cynomolgus monkey plasma at po administration measured for 24 hrs; format: ADME, organism-based, Macaca fascicularis; details: in vivo
[21] = Cmax in cynomolgus monkey at 10 mg/kg,po administration for 1 day; format: ADME, organism-based, Macaca fascicularis; parameters: time 1 day, dose 10 mg/kg, route po; details: in vivo, 24 h
[22] = Cmax in cynomolgus monkey at 10 mg/kg,po administration for 14 days; format: ADME, organism-based, Macaca fascicularis; parameters: dose 10 mg/kg, time 14 day, route po; details: in vivo
[23] = AUClast in cynomolgus monkey at 10 mg/kg,po administration for 1 day; format: ADME, organism-based, Macaca fascicularis; parameters: dose 10 mg/kg, time 1 day, route po; details: in vivo
[24] = AUClast in cynomolgus monkey at 10 mg/kg,po administration for 14 days; format: ADME, organism-based, Macaca fascicularis; parameters: time 14 day, dose 10 mg/kg, route po; details: in vivo
[25] = biological target: T2, Protein cereblon-BTK (Macaca fascicularis) (UniProt A0A2K5UTB3+A0A7N9IGT8); assay: In vivo protac activity at CRBN/BTK in cynomolgus monkey assessed as degradation of BTK protein at po administration measured after 24 hrs by flow cytomtery; format: functional, organism-based
T2 sequence (A0A2K5UTB3 1-488): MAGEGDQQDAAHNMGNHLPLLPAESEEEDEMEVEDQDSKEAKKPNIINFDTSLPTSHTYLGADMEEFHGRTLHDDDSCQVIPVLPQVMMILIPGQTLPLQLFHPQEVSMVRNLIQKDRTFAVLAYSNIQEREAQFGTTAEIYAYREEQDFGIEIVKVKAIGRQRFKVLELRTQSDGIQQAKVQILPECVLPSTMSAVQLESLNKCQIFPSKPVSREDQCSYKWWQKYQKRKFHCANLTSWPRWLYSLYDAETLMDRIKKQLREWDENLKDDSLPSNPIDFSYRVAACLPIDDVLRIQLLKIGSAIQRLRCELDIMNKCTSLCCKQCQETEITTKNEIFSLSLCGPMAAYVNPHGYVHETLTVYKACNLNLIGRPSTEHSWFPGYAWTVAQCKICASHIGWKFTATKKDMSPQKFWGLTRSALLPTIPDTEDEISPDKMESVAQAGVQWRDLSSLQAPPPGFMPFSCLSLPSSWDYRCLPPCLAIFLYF
T2 sequence (A0A7N9IGT8 entry or part of it partner): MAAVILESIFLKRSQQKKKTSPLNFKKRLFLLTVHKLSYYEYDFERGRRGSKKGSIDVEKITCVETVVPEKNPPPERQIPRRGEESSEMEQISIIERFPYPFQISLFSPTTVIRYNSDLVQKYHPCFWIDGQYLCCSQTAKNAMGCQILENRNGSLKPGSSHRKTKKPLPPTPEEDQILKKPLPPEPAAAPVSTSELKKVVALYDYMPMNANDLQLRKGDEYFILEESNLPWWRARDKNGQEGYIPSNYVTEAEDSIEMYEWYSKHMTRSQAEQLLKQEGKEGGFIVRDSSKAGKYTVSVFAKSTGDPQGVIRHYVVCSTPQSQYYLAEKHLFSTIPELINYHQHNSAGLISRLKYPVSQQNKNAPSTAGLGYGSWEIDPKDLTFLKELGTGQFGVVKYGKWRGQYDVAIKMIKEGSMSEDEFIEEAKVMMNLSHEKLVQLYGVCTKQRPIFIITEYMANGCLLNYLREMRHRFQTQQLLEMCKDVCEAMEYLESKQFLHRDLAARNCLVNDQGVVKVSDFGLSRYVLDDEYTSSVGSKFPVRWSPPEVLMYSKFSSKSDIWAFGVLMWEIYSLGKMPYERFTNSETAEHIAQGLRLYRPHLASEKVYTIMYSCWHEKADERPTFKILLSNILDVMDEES

[26] = biological target: T3, Protein cereblon/Zinc finger protein Aiolos (Macaca fascicularis) (UniProt A0A2K5UTB3+A0A2K5VJM3); assay: In vivo protac activity at CRBN/IKZF3 in cynomolgus monkey assessed as degradation of IKZF3 protein at po administration measured after 24 hrs by flow cytomtery; format: functional, organism-based
T3 sequence (A0A2K5UTB3 1-488): as the sequence (A0A2K5UTB3 1-488) above
T3 sequence (A0A2K5VJM3 entry or part of it partner): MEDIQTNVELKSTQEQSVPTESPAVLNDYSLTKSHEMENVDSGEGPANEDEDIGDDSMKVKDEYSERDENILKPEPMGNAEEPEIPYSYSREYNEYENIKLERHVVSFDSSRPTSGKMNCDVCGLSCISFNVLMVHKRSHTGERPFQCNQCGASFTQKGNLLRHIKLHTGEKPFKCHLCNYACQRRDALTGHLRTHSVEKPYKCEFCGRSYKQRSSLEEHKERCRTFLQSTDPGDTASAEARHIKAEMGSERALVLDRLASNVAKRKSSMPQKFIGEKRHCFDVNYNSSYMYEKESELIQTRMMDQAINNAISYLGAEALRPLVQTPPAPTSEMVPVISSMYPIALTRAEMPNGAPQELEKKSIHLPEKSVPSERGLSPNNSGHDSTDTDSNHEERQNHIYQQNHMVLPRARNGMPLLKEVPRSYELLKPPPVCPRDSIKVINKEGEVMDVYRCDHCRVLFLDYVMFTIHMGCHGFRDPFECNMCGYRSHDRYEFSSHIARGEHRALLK

[27] = biological target: T2, Protein cereblon-BTK (Macaca fascicularis); assay: In vivo protac activity at CRBN/BTK in cynomolgus monkey assessed as remaining BTK protein in B cells at 30 mg/kg,po administration for 1 day by flow cytomtery relative to control; format: functional, organism-based
[28] = biological target: T2, Protein cereblon-BTK (Macaca fascicularis); assay: In vivo protac activity at CRBN/BTK in cynomolgus monkey assessed as remaining BTK protein in B cells at 100 mg/kg,po administration for 1 day by flow cytomtery relative to control; format: functional, organism-based
[29] = biological target: T2, Protein cereblon-BTK (Macaca fascicularis); assay: In vivo protac activity at CRBN/BTK in cynomolgus monkey assessed as remaining BTK protein in B cells at 10 to 100 mg/kg,po administration for 14 days by flow cytomtery relative to control; format: functional, organism-based; details: dose 10-100 mg/kg, time 14.0 day
[30] = biological target: T3, Protein cereblon/Zinc finger protein Aiolos (Macaca fascicularis); assay: In vivo protac activity at CRBN/IKZF3 in cynomolgus monkey assessed as degradation of IKZF3 protein at 10 to 100 mg/kg,po administration by flow cytomtery; format: functional, organism-based; details: dose 10-100 mg/kg
[31] = biological target: T3, Protein cereblon/Zinc finger protein Aiolos (Macaca fascicularis); assay: In vivo protac activity at CRBN/IKZF3 in cynomolgus monkey assessed as degradation of IKZF3 protein at 100 mg/kg,po administration for 14 days by flow cytomtery relative to control; format: functional, organism-based; details: time 14.0 day
[32] = biological target: T1, Protein cereblon/Tyrosine-protein kinase BTK (Mus musculus); assay: In vivo protac activity at CRBN/BTK in CB17-SCID mouse assessed as degradation of BTK protein in B cells at 10 to 90 mg/kg,po administration for 25 days by flow cytomtery; format: functional, organism-based; details: dose 10-90 mg/kg, time 25.0 day
Cereblon/Ikaros = Cereblon/Ikaros (Homo sapiens, UniProt Q96SW2+Q13422); assay: In vivo protac activity at CRBN/IKZF1 in CB17-SCID mouse xenografted with human TMD8 cells assessed as degradation of IKZF1 protein in tumor at 10 to 90 mg/kg,po administration for 25 days by flow cytomtery; format: functional, organism-based; details: dose 10-90 mg/kg, time 25.0 day
[33] = biological target: Protein cereblon/Zinc finger protein Aiolos (Homo sapiens, UniProt Q96SW2+Q9UKT9); assay: In vivo protac activity at CRBN/IKZF3 in CB17-SCID mouse xenografted with human TMD8 cells assessed as degradation of IKZF3 protein in tumor at 10 to 90 mg/kg,po administration for 25 days by flow cytomtery; format: functional, organism-based; details: dose 10-90 mg/kg, time 25.0 day
Chain of Protein cereblon/Zinc finger protein Aiolos (Q96SW2 whole entry, looked up): as the sequence (Q96SW2 whole entry) above
Chain of Protein cereblon/Zinc finger protein Aiolos (Q9UKT9 whole entry, looked up): as the sequence (A0A2K5VJM3 entry or part of it partner) above, with V8A, T20A, P23A, I71V, P74S, P352S, P409S, V433I, I439V counted along it

TMD8 [34] = assay: Antitumor activity against human TMD8 cells expressing wild type BTK xenografted in CB17-SCID mouse assessed as tumor growth inhibition at 10 mg/kg,po administration for 25 days; format: functional; details: TMD8, 600 h, time 25 day, read-out: TGI
TMD8 [35] = assay: Antitumor activity against human TMD8 cells expressing wild type BTK xenografted in CB17-SCID mouse assessed as tumor growth inhibition at 30 mg/kg,po administration for 25 days; format: functional; details: TMD8, 600 h, time 25 day, read-out: TGI
TMD8 [36] = assay: Antitumor activity against human TMD8 cells expressing BTK C481S mutant xenografted in CB17-SCID mouse assessed as tumor growth inhibition at 10 mg/kg,po administration for 25 days; format: functional; details: TMD8, 600 h, time 25 day, read-out: TGI
TMD8 [37] = assay: Antitumor activity against human TMD8 cells expressing BTK C481S mutant xenografted in CB17-SCID mouse assessed as tumor growth inhibition at 30 mg/kg,po administration for 25 days; format: functional; details: TMD8, 600 h, time 25 day, read-out: TGI
Cytochrome P450 3A4 [38] = biological target: T4, Cytochrome P450 3A4 (Homo sapiens, UniProt P08684); assay: Inhibition of CYP3A4 (unknown origin); format: ADME
T4 sequence (P08684 whole entry): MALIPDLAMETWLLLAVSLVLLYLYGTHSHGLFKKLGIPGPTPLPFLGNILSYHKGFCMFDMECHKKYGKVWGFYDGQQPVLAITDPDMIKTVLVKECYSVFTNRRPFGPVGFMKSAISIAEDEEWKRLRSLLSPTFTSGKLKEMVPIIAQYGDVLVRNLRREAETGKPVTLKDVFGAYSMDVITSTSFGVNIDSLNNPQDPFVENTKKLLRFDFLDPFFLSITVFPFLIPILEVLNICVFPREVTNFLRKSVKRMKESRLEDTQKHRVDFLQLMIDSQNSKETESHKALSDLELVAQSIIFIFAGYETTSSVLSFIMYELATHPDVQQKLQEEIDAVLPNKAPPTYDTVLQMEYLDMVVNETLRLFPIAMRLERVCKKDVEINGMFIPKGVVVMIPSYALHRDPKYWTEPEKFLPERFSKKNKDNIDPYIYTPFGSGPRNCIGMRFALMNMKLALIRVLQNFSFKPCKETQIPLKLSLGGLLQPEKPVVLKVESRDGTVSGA

Cytochrome P450 3A4 [39] = biological target: T4, Cytochrome P450 3A4; assay: Time dependent inhibition of CYP3A4 (unknown origin); format: ADME
[40] = biological target: Tyrosine-protein kinase BTK (Homo sapiens, UniProt Q06187); assay: Binding affinity to BTK (unknown origin) assessed as dissociation constant by surface plasmon resonance assay
Chain of Tyrosine-protein kinase BTK (Q06187 whole entry): as the sequence (Q06187 whole entry) above

[41] = biological target: T1, Protein cereblon/Tyrosine-protein kinase BTK (Mus musculus); assay: In vivo protac activity at CRBN/BTK in BALB/c mouse assessed as residual BTK protein in blood at 3 mg/kg,po administration measured after 24 hrs by flow cytomtery relative to control

`NC(=O)c1ncc(N2CCCCC2)nc1Nc1ccc(C2CCN(C[C@H]3CCN(c4ccc5c(c4)C(=O)N(C4CCC(=O)NC4=O)C5=O)C3)CC2)cc1` (some centres not stated) [ZELEBRUDOMIDE] gave a DC50 [1] of 4.5 nM, a Papp A→B [2] of under 0.02 ×10⁻⁶ cm/s and a fraction unbound [3] of under 0.015. It also gave a fraction unbound [4] of 0.025, a fraction unbound [5] of 0.046 and a fraction unbound [6] of 0.063. For the same compound, the AUC [7] was 16 µM·h, the clearance [8] was 18.4 mL/min/kg and the AUC [9] was 0.89 µM·h. It also gave an AUC [10] of 0.13 µM·h, an AUC [11] of 0.09 µM·h and a Cmax [12] of 1300 nM. It also gave a Cmax [13] of 67 nM, a Cmax [14] of 31 nM and a Cmax [15] of 11 nM. It also gave a bioavailability [16] of 1%, an Activity [17] of 21% and an Activity [18] of 17%. The Drug uptake [19] was “Dose-Dependent Effect”, the Drug uptake [20] was “Dose-Dependent Effect” and the Cmax [21] was 26.9 ng/mL. For the same compound, the Cmax [22] was 25.4 ng/mL, the AUC(0-t) at 24 h [23] was 267 ng·h/mL and the AUC(0-t) at 336 h [24] was 366 ng·h/mL. The Activity [25] was “Dose-Dependent Effect”, the Activity [26] was “Dose-Dependent Effect” and the Activity [27] was 9%. The Activity [28] was 8%, the Activity [29] was under 10% and the Activity [30] was “inactive”. For the same compound, the Activity [31] was 43%, the Activity [32] was “Active” and the Activity (Cereblon/Ikaros) was “Active”. For the same compound, the Activity [33] was “Active”, the inhibition in vivo at 10 mg/kg (TMD8 [34]) was 35% and the inhibition in vivo at 30 mg/kg (TMD8 [35]) was 73%. The inhibition in vivo at 10 mg/kg (TMD8 [36]) was 17%, the inhibition in vivo at 30 mg/kg (TMD8 [37]) was 43% and the IC50 (Cytochrome P450 3A4 [38]) was over 30000 nM. The TDI (Cytochrome P450 3A4 [39]) was “Not Active”, the Kd [40] was 45 nM and the residual activity [41] was 36%.
